In PubChem BioAssay AID2060493 (Molecular Pharmacology Branch, DTP, NCI, 2025):
pIC50: −log10 of the molar value.

Tested on: 616215-338-R-J1-PDC tumor spheroids, viability
Assay: Anticancer human tumor 616215-338-R-J1-PDC patient-derived colon adenocarcinoma cell line growth inhibition [GQUAD]
Settings: spheroids with HUVEC and MSC; for pIC50: curve of first compound; for viability, T/C: stronger effect = lower value
In short: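 Viability of tumor cells grown as complex spheroids with endothelial and stromal cells, exposed to drug combinations. Top concentration at or near clinical Cmax (else 10 microM), diluted in half-log increments.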

[1] = second compound 0.0316 µM, first compound 0.0316 µM
[2] = second compound 0.0316 µM, first compound 0.1 µM
[3] = second compound 0.0316 µM, first compound 0.316 µM
[4] = second compound 0.0316 µM, first compound 1 µM
[5] = second compound 0.0316 µM, first compound 3.16 µM
[6] = second compound 0.0316 µM, first compound 10 µM
[7] = second compound 0.1 µM, first compound 0.0316 µM
[8] = second compound 0.1 µM, first compound 0.1 µM
[9] = second compound 0.1 µM, first compound 0.316 µM
[10] = second compound 0.1 µM, first compound 1 µM
[11] = second compound 0.1 µM, first compound 3.16 µM
[12] = second compound 0.1 µM, first compound 10 µM
[13] = second compound 0.316 µM, first compound 0.0316 µM
[14] = second compound 0.316 µM, first compound 0.1 µM
[15] = second compound 0.316 µM, first compound 0.316 µM
[16] = second compound 0.316 µM, first compound 1 µM
[17] = second compound 0.316 µM, first compound 3.16 µM
[18] = second compound 0.316 µM, first compound 10 µM
[19] = second compound 1 µM, first compound 0.0316 µM
[20] = second compound 1 µM, first compound 0.1 µM
[21] = second compound 1 µM, first compound 0.316 µM
[22] = second compound 1 µM, first compound 1 µM
[23] = second compound 1 µM, first compound 3.16 µM
[24] = second compound 1 µM, first compound 10 µM
[25] = second compound 3.16 µM, first compound 0.0316 µM
[26] = second compound 3.16 µM, first compound 0.1 µM
[27] = second compound 3.16 µM, first compound 0.316 µM
[28] = second compound 3.16 µM, first compound 1 µM
[29] = second compound 3.16 µM, first compound 3.16 µM
[30] = second compound 3.16 µM, first compound 10 µM
[31] = second compound 10 µM, first compound 0.0316 µM
[32] = second compound 10 µM, first compound 0.1 µM
[33] = second compound 10 µM, first compound 0.316 µM
[34] = second compound 10 µM, first compound 1 µM
[35] = second compound 10 µM, first compound 3.16 µM
[36] = second compound 10 µM, first compound 10 µM
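Note: spheroids exposed to agents for 7 days before readout.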
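Throughout, for viability, T/C: percent viability relative to DMSO vehicle control wells taken as 100%.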

## CC(C)n1c(=O)n(C)c2cnc3cc(F)c(-c4ccc(OCCCN5CCCCC5)nc4)cc3c21 + Cc1[nH]c2ccc(F)cc2c1-c1nc2c3cccnc3c3ncccc3c2[nH]1
Second compound 0.0316 µM
  pIC50: < 5.00
Second compound 0.1 µM
  pIC50: < 5.00
Second compound 0.316 µM
  pIC50: < 5.00
Second compound 1 µM
  pIC50: < 5.00
Second compound 3.16 µM
  pIC50: < 5.00
Second compound 10 µM
  pIC50: < 5.00
[1]
  viability, T/C: 102%
[2]
  viability, T/C: 98.8%
[3]
  viability, T/C: 97.5%
[4]
  viability, T/C: 101%
[5]
  viability, T/C: 117%
[6]
  viability, T/C: 70.9%
[7]
  viability, T/C: 103%
[8]
  viability, T/C: 99.6%
[9]
  viability, T/C: 100%
[10]
  viability, T/C: 107%
[11]
  viability, T/C: 112%
[12]
  viability, T/C: 85.7%
[13]
  viability, T/C: 107%
[14]
  viability, T/C: 99.3%
[15]
  viability, T/C: 100%
[16]
  viability, T/C: 106%
[17]
  viability, T/C: 100%
[18]
  viability, T/C: 72.9%
[19]
  viability, T/C: 99%
[20]
  viability, T/C: 116%
[21]
  viability, T/C: 97.5%
[22]
  viability, T/C: 93.6%
[23]
  viability, T/C: 101%
[24]
  viability, T/C: 95.7%
[25]
  viability, T/C: 99%
[26]
  viability, T/C: 93.8%
[27]
  viability, T/C: 87.3%
[28]
  viability, T/C: 98.7%
[29]
  viability, T/C: 104%
[30]
  viability, T/C: 57.4%
[31]
  viability, T/C: 94.5%
[32]
  viability, T/C: 94.7%
[33]
  viability, T/C: 99.1%
[34]
  viability, T/C: 91.2%
[35]
  viability, T/C: 107%
[36]
  viability, T/C: 87%

## COc1ccc([C@@H](O)c2cc(-c3ncnc4cc(N5CCOCC5)ccc34)c(F)cc2Cl)nn1 + CN(C)c1ccc(Nc2c3ccc(NC(=O)CCN4CCCC4)cc3nc3cc(NC(=O)CCN4CCCC4)ccc23)cc1
Second compound 0.0316 µM
  pIC50: < 5.00
Second compound 0.1 µM
  pIC50: < 5.00
Second compound 0.316 µM
  pIC50: < 5.00
Second compound 1 µM
  pIC50: 5.09
Second compound 3.16 µM
  pIC50: 5.22
Second compound 10 µM
  pIC50: 5.47
[1]
  viability, T/C: 105%
[2]
  viability, T/C: 99.2%
[3]
  viability, T/C: 101%
[4]
  viability, T/C: 98.1%
[5]
  viability, T/C: 93.1%
[6]
  viability, T/C: 58.6%
[7]
  viability, T/C: 96.3%
[8]
  viability, T/C: 94.6%
[9]
  viability, T/C: 104%
[10]
  viability, T/C: 102%
[11]
  viability, T/C: 87.6%
[12]
  viability, T/C: 55.6%
[13]
  viability, T/C: 101%
[14]
  viability, T/C: 93%
[15]
  viability, T/C: 102%
[16]
  viability, T/C: 103%
[17]
  viability, T/C: 97.7%
[18]
  viability, T/C: 54.6%
[19]
  viability, T/C: 97.7%
[20]
  viability, T/C: 100%
[21]
  viability, T/C: 94.3%
[22]
  viability, T/C: 92.7%
[23]
  viability, T/C: 89.1%
[24]
  viability, T/C: 41.3%
[25]
  viability, T/C: 91%
[26]
  viability, T/C: 89.9%
[27]
  viability, T/C: 90.4%
[28]
  viability, T/C: 101%
[29]
  viability, T/C: 74.9%
[30]
  viability, T/C: 30.6%
[31]
  viability, T/C: 91.3%
[32]
  viability, T/C: 90.8%
[33]
  viability, T/C: 93.7%
[34]
  viability, T/C: 64.2%
[35]
  viability, T/C: 57.6%
[36]
  viability, T/C: 10.2%
